Publication PMC12720098, “Prolintane analogs as hybrid monoamine transporter ligands: Structural determinants and species differences” (The Journal of Biological Chemistry, 2025)
Read-outs that look alike come from different tables or passages of the source.

Experiments:
[1] = biological target: T1, rDAT (Rattus norvegicus, UniProt P23977); test: Uptake inhibition assay ([3H]dopamine) in rat brain synaptosomes; type: biochemical; settings: for DAT/SERT ratio: rat isoform (r), 1/DAT IC50 / 1/SERT IC50
T1 construct: As a means to evaluate transporter activity of prolintane analogs in native tissue preparation; from tissue; host or cells: rat caudate synaptosomes
Experimental: (§1) Rats were killed by CO2 narcosis and decapitated, then synaptosomes were prepared from brains using standard procedures. In brief, synaptosomes were prepared from caudate tissue for rat DAT (rDAT) assays, or from whole brain minus caudate and cerebellum for rat NET (rNET) and rat SERT (rSERT) assays. Brain tissue was homogenized in ice-cold 10% sucrose followed by centrifugation at 1000g for 10 min. The resulting supernatant containing crude synaptosomes was kept on ice until use in uptake or release procedures. Uptake inhibition and release assays were carried out as previously described ([62], [63]).
(§2) For uptake inhibition assays, 5 nM [^3H]dopamine, 10 nM [^3H]norepinephrine, or 5 nM [^3H]5-HT was used as the radiolabeled transmitter for rDAT, rNET, or rSERT, respectively. To optimize uptake for a single transporter, unlabeled blockers were included that prevented uptake of [^3H]transmitter by competing transporters: 50 nM GBR 12935 was added to NET and SERT assays to block DAT, 100 nM nomifensine was added to SERT assays to block NET. Uptake assays were initiated by adding 100 μl of tissue to 900 μl Krebs-phosphate buffer (126 mM NaCl, 2.4 mM KCl, 0.83 mM CaCl2, 0.8 mM MgCl2, 0.5 mM KH2PO4, 0.5 mM Na2SO4, 11.1 mM glucose, 0.05 mM pargyline, 1 mg/ml bovine serum albumin, and 1 mg/ml ascorbic acid, pH 7.4) containing test drug and [^3H]transmitter. Uptake assays were terminated by rapid vacuum filtration, and retained radioactivity was quantified with liquid scintillation counting.
(§3) Effects of test drugs on release and uptake inhibition were analyzed by nonlinear regression using GraphPad Prism 9 (GraphPad Scientific, San Diego, CA, USA). Concentration–response values for the uptake inhibition and release were fit to the equation, Y(x)=Ymin+Ymax−Ymin/1+10^((LogP50−LogX)·n) , where x is the concentration of the compound tested, Y(x) is the response measured, Ymax is the maximal response, P50 is either IC50 (the concentration that yields half-maximal uptake inhibition response) or EC50 (the concentration that yields half-maximal release response), and n is the Hill slope parameter.

[2] = biological target: T2, hNET (Homo sapiens, UniProt P23975); test: Uptake inhibition assay ([3H]MPP+) in transfected HEK293 cells; type: cell-based
T2 construct: expressed in transfected cells
Experimental: HEK293 cells stably expressing human monoamine transporters hSERT, hDAT or hNET were seeded into poly-D-lysine (PDL) coated 96-well plates with a density of approximately 36,000 cells per well 1 day prior to experiments. A day after seeding, the cell medium was replaced with 200 μl Krebs-HEPES-buffer (KHB; 120 mM NaCl, 3 mM KCl, 2 mM CaCl2·2H2O, 2 mM MgCl2·6H2O, 20 mM D-glucose, pH = 7.3). The test drugs were initially dissolved in Milli-Q H2O or dimethyl sulfoxide (DMSO) at a concentration of 10 to 100 mM. Then, cells were treated with the respective concentration of the test drug diluted in KHB for 5 min as a pre-incubation step. Subsequently, in the uptake step, the solution was replaced with 50 μl/well diluted drug solution and tritiated substrate (hDAT: 0.1 μM [^3H]DA; hNET: 0.02 μM [^3H]MPP^+; hSERT: 0.1 μM [^3H]5-HT) for 1 min (hDAT, hSERT) or 3 min (hNET). After incubation, cells were immediately washed with 200 μl KHB to stop uptake. Uptake was indirectly measured by quantifying beta emission with liquid scintillation counting (Wallac 1450 MicroBeta TriLux Liquid Scintillation Counter & Lumi; GMI). Therefore, 200 μl Ultima Gold XR scintillation cocktail (PerkinElmer, MA, USA) was added to each well.
(§4) Half-maximal inhibitory concentrations (IC50) were obtained from fitting a sigmoidal dose–response ( Y=Bottom+Top−Bottom/1+10^((LogIC50−X)·HillSlope) ) in GraphPad Prism 10.3.1 (GraphPad Software Inc.). Uptake inhibition data were evaluated by one-way ANOVA followed by Tukey's multiple comparisons test. Release data were analyzed using a two-way ANOVA (batch release) or a mixed-effects model with Geisser-Greenhouse correction (time-dependent traces) employing Šidák correction for comparing differences between compounds with or without the addition of monensin.

[3] = biological target: T3, hSERT (Homo sapiens, UniProt P31645); type: cell-based; settings: for Mean diff, hSERT efflux ± Mon (Šídák's multiple comparisons test): drug alone vs drug + monensin (Mon); for hSERT efflux ± Mon, mean diff: superfusion
T3 construct: expressed in transfected cells
Experimental: A day prior to the experiment, HEK293 cells stably expressing hSERT or rat SERT (rSERT) were seeded at a density of 100,000 cells per channel into 6 channel flow ibidi slides (Gräfelfing, Germany). On the day of the experiments, cells were preloaded with 0.1 μM [^3H]5-HT at 37 °C, 5% CO2 for 20 min. Subsequently, the slides were transferred to the superfusion apparatus ([59]). Cells were then washed with KHB for 15 min under a constant flow of 0.5 ml/min. Fractions were collected every 2 min in 8 ml vials containing 2 ml scintillation cocktail. Collection began with three baseline fractions using KHB, followed by four additional basal release fractions with KHB, either with or without 10 μM monensin. […] To assess residual radioactivity within the cells, they were lysed with 1% sodium dodecyl sulfate (SDS), and three final fractions were obtained. The measured tritiated substrate in each fraction was expressed as a percentage of the initial tritiated substrate present at the start of that fraction.
as §4

[4] = biological target: rSERT (Rattus norvegicus, UniProt P31652); test: Uptake inhibition assay ([3H]5-HT) in rat brain synaptosomes; type: biochemical; parameters: As a means to evaluate transporter activity of prolintane analogs in native tissue preparation; from tissue; host or cells: rat brain synaptosomes (whole brain minus caudate and cerebellum)
Experimental: as §1, §2, §3

T3 sequence (P31645 whole entry, the tested form may be a part): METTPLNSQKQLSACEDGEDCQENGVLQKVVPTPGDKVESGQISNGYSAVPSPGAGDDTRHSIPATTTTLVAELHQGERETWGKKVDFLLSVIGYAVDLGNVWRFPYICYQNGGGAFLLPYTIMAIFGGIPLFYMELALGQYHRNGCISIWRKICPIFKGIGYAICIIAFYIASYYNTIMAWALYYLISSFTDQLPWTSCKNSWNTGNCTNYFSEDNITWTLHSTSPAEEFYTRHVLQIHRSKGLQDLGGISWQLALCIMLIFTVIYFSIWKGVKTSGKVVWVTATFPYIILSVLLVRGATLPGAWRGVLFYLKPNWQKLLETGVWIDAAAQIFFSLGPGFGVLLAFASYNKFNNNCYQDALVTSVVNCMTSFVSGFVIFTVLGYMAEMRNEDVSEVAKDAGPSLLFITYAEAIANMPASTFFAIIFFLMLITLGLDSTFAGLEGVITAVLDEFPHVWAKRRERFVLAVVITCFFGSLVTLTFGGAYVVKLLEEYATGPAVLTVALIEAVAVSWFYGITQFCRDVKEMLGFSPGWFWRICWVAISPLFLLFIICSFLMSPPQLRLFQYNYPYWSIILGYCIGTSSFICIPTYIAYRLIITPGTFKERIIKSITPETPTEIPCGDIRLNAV
T2 sequence (P23975 whole entry): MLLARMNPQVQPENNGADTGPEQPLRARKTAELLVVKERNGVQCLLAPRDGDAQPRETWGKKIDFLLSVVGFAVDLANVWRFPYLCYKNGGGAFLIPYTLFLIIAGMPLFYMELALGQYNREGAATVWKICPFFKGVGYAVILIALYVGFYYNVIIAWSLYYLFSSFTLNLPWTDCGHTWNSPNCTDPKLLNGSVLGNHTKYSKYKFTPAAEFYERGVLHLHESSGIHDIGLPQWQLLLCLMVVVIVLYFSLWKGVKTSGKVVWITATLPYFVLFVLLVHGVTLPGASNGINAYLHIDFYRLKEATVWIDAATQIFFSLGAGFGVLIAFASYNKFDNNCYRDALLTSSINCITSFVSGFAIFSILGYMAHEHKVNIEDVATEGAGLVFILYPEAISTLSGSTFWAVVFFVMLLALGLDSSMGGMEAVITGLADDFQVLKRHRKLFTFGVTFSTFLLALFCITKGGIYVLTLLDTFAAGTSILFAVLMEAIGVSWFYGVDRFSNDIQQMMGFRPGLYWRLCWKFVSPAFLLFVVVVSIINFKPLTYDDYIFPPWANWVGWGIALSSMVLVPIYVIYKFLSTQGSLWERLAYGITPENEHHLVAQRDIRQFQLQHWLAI
T1 sequence (P23977 whole entry, canonical isoform): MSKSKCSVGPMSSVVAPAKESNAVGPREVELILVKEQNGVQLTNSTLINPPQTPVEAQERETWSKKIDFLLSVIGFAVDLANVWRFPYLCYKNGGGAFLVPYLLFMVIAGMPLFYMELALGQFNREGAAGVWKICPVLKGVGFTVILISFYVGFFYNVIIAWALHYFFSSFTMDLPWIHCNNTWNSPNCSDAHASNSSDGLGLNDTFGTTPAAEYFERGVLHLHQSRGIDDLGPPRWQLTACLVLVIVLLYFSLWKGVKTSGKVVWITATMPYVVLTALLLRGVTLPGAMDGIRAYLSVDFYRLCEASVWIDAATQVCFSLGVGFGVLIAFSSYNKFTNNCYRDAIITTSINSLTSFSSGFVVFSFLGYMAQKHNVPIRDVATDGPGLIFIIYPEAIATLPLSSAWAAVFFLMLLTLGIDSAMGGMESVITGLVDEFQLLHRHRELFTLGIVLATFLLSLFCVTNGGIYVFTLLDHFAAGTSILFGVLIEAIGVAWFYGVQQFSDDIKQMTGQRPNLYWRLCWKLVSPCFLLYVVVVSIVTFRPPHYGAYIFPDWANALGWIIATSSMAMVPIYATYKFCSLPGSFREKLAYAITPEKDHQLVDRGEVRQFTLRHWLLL
Chain of rSERT (P31652 whole entry): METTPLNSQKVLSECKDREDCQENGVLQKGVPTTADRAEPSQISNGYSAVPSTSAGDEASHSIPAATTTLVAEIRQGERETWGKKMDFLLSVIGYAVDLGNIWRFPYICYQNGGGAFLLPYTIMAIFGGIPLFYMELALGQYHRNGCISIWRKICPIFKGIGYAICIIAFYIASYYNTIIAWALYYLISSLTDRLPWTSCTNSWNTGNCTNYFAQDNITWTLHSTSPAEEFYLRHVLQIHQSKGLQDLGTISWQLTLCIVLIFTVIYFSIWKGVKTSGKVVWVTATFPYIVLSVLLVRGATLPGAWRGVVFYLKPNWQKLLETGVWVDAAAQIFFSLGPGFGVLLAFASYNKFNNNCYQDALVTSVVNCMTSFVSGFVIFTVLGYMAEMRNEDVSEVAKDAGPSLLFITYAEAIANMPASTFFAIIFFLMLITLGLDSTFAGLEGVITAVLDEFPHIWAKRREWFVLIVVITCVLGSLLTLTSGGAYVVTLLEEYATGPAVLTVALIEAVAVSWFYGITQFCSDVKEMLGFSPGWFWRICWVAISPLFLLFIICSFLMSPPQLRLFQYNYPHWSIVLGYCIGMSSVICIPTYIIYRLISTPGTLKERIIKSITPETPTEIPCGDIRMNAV

Compound | IC50 [1] [nM] | DAT/SERT ratio [1] | IC50 [2] [nM] | Mean diff, hSERT efflux ± Mon (Šídák's multiple comparisons test) ([3]; Row 1 (time fraction)) | Mean diff, hSERT efflux ± Mon (Šídák's multiple comparisons test) ([3]; Row 2 (time fraction)) | Mean diff, hSERT efflux ± Mon (Šídák's multiple comparisons test) ([3]; Row 3 (time fraction)) | Mean diff, hSERT efflux ± Mon (Šídák's multiple comparisons test) ([3]; Row 4 (time fraction)) | Mean diff, hSERT efflux ± Mon (Šídák's multiple comparisons test) ([3]; Row 5 (time fraction)) | Mean diff, hSERT efflux ± Mon (Šídák's multiple comparisons test) ([3]; Row 6 (time fraction)) | Mean diff, hSERT efflux ± Mon (Šídák's multiple comparisons test) ([3]; Row 7 (time fraction)) | Mean diff, hSERT efflux ± Mon (Šídák's multiple comparisons test) ([3]; Row 8 (time fraction)) | Mean diff, hSERT efflux ± Mon (Šídák's multiple comparisons test) ([3]; Row 9 (time fraction)) | Mean diff, hSERT efflux ± Mon (Šídák's multiple comparisons test) ([3]; Row 10 (time fraction)) | Mean diff, hSERT efflux ± Mon (Šídák's multiple comparisons test) ([3]; Row 11 (time fraction)) | Mean diff, hSERT efflux ± Mon (Šídák's multiple comparisons test) ([3]; Row 12 (time fraction)) | IC50 [4] [nM] | also measured
CCCC(Cc1cccc(C)c1)N1CCCC1 (stereo not drawn) [3-Methylprolintane, 1-[1-(3-methylphenyl)pentan-2-yl]pyrrolidine] | 111 ± 8 | 1.25 | 139 ± 33 | 0.05456 | 0.01844 | 0.02833 | 0.07733 | -0.1496 | -0.229 | -0.329 | -4.546 | -6.038 | -6.018 | -5.904 | -5.776 | 139 ± 14 | 
CCCC(Cc1ccccc1)N1CCCC1 (stereo not drawn) [Prolintane, 1-(1-phenylpentan-2-yl)pyrrolidine] | 61 ± 6 | 38 | 59 ± 7 |  |  |  |  |  |  |  |  |  |  |  |  | 2320 ± 169 | hSERT efflux ± Mon, mean diff ([3]; Row 1 (2 min fraction 1, baseline KHB)): 0.02682; hSERT efflux ± Mon, mean diff ([3]; Row 2 (2 min fraction 2, baseline KHB)): 0.1025; hSERT efflux ± Mon, mean diff ([3]; Row 3 (2 min fraction 3, baseline KHB)): 0.1806; hSERT efflux ± Mon, mean diff ([3]; Row 4 (fraction 4, KHB with or without 10 μM monensin)): 0.1203; hSERT efflux ± Mon, mean diff ([3]; Row 5 (fraction 5, KHB with or without 10 μM monensin)): 0.07151; hSERT efflux ± Mon, mean diff ([3]; Row 6 (fraction 6, KHB with or without 10 μM monensin)): -0.1392; hSERT efflux ± Mon, mean diff ([3]; Row 7 (fraction 7, KHB with or without 10 μM monensin)): -0.1744; hSERT efflux ± Mon, mean diff ([3]; Row 8 (fraction 8, compound at IC50 concentration)): -5.479; hSERT efflux ± Mon, mean diff ([3]; Row 9 (fraction 9, compound at IC50 concentration)): -6.902; hSERT efflux ± Mon, mean diff ([3]; Row 10 (fraction 10, compound at IC50 concentration)): -6.703; hSERT efflux ± Mon, mean diff ([3]; Row 11 (fraction 11, compound at IC50 concentration)): -6.503; hSERT efflux ± Mon, mean diff ([3]; Row 12 (fraction 12, compound at IC50 concentration)): -6.083; IC50 at rSERT, fold weaker than at rDAT and rNET ([4]; rat brain synaptosomes): about 50 fold
CCCC(Cc1ccc(F)cc1)N1CCCC1 (stereo not drawn) [4-Fluoroprolintane, 1-[1-(4-fluorophenyl)pentan-2-yl]pyrrolidine] | 213 ± 13 | 4.2 | 307 ± 97 | -0,0007778 | 0,02200 | 0,004889 | -0,08044 | -0,1983 | -0,2323 | -0,3017 | -8,349 | -9,598 | -8,382 | -7,454 | -6,666 | 884 ± 78 | 
CCCC(Cc1cccc(F)c1)N1CCCC1 (stereo not drawn) [3-Fluoroprolintane, 1-[1-(3-fluorophenyl)pentan-2-yl]pyrrolidine] | 58 ± 4 | 9 | 35 ± 11 | 0,003889 | -0,003000 | 0,02067 | -0,01133 | -0,1369 | -0,2296 | -0,2910 | -4,827 | -7,510 | -7,391 | -7,140 | -7,011 | 521 ± 116 | 
CCCC(Cc1ccc(C)cc1)N1CCCC1 (stereo not drawn) [4-Methylprolintane, 1-[1-(4-methylphenyl)pentan-2-yl]pyrrolidine] | 37 ± 3 | 1.9 | 72 ± 14 | -0,002444 | 0,005667 | -0,04278 | -0,1390 | -0,3006 | -0,3681 | -0,4242 | -4,103 | -5,748 | -5,723 | -5,744 | -5,949 | 72 ± 5 | 
